pIC50: −log10 of the molar value. Where two headings read alike, the source gives them in different places.
Columns and labels:
NCI-60 human cell lines = test: NCI-60 five-dose screen; type: cell-based
Procedure: Detailed screening methodology can be accessed from https://dtp.cancer.gov/discovery_development/nci-60/methodology.htm webpage. Briefly, 24 h after cell seeding into 96-well plates, cells were treated with 5-log M concentration range of the compound for 2 days. Cytotoxicity was assessed using SRB assay. The data presented in the FIG.s are the average values of both experiments.

JIMT-1 cells [1] = test: Annexin V/PI staining; type: cell-based, human; details: 500 nM, 72 h; vehicle 4.1%
JIMT-1 cells [2] = test: Colony formation assay; type: cell-based, human; details: 12 days
Procedure: For monolayer culture, single-cell suspensions of JIMT-1 cells (3×10^3 cells/well) were plated in a 12-well plate. […] In order to test the colony formation capacity of MCF-12A cells during TACC3 overexpression, MCF-12A cells (2×10^5) were seeded into 6-well plates and TACC3 trasnfection was performed next day. 48 h following transfection, cells were counted and 1×10^3 cells/well were plated into 12-well plates. For both experimental setups, the media were refreshed every 4 days, and cells were incubated for 12 days. Cells were then fixed with 2% paraformaldehyde for 15 min and stained with 1% crystal violet (Merck, Darmstadt, Germany) for 15 min at RT. Surviving colonies (composed of at least 50 cells) were counted with ImageJ software (NIH).

JIMT-1 xenografts = test: JIMT-1 xenograft tumor growth in female nude mice; type: in vivo
Procedure: Six-to-eight-week-old female athymic nude or Balb/c mice were housed with a temperature-controlled and 12-hour light/12-hour dark cycle environment. This study was carried out in accordance with Institutional Animal Care and Use Committee of Bilkent University and performed according to the institution's guidelines and animal research principles. For in vivo breast cancer tumor growth in nude mice, 4×10^6 JIMT-1 cells were prepared in 150 μl of 1:1 DMEM and Matrigel (Corning, N.Y., USA), v/v) and injected into the mammary fat pads (MFP) of female nude mice. Mouse weight and tumor volume were measure daily using calipers. Tumor volumes were calculated as length×width^2×0.5. Once the tumor volume had reached about 90-100 mm^3, xenografts were randomized into groups. […] Mice were sacrificed 20-30 days after initiation of the treatments, and the tumors were collected and stored for subsequent analyses.

MCF-12A = test: Cell viability of normal breast epithelial cells; type: cell-based, human; details: 5, 10 μM
Procedure: Next, the specificity of compound 5 towards cancer cell lines over normal cells were tested. […] To test the transforming potential of TACC3 and dependency of cells to TACC3 to survive, we performed a clonogenic growth assay in MCF-12A cells after overexpressing TACC3. […] To exclude the possibility that the differences we observed between cancer and normal cells are due to the differences in the proliferation rates of these cells, we calculated their doubling times.

JIMT-1 cells [3] = test: JIMT-1 cell growth inhibition / cell viability (SRB assay); type: cell-based; details: Homo sapiens
Procedure: The ability of the compounds of the present disclosure to treat TACC3-mediated cancers, or associated symptoms or complications thereof, was determined using the following procedures. The compounds of the present disclosure were tested for their activity against cell death induction using a JIMT-1 cell line, which was a cell line having high level of TACC3. The concentration of each compound that was required for half-maximal inhibition of cell proliferation was calculated by a GraphPad Prism (GraphPad Software).

TACC3 = TACC3 (Homo sapiens, UniProt Q9Y6A5); test: Drug affinity responsive target stability (DARTS) with JIMT-1 cell protein extracts; type: binding; parameters: endogenous in cells; host or cells: JIMT-1; details: 10 μM
Description: DARTS is a label free-strategy to identify potential direct protein targets for small molecules and is based on stabilization and protection from proteolysis of the target protein upon binding to small molecules (Lomenick, Jung et al. 2011, Pai, Lomenick et al. 2015).

[4] = Stability in mouse liver microsomes; type: in vitro ADME
[5] = Stability in human liver microsomes; type: in vitro ADME
JIMT-1 cells [6] = test: Western blot of mitotic arrest, DNA damage and apoptosis markers; type: cell-based, human; details: 24 hours, dose response
Procedure: JIMT-1, MDA-MB-436, MDA-MB-157 and BT-474 T-DM1R cell lines were tested with respect to their response to these three drugs. […] Although higher KHS101 doses was included, which were used by others (Campo & Breuer, 2018), an induction of these markers was only observed at very high doses.

[7] = Log D, octanol/sodium phosphate buffer; type: physicochemical; details: octanol/sodium phosphate buffer (50 mM, pH 7.4); read-out: log D7.4
CYP2C9 = CYP2C9 (Homo sapiens, UniProt P11712); details: read-out: IC50 CYP2C9; human liver microsomes
Sequence of CYP2C9 (P11712 whole entry): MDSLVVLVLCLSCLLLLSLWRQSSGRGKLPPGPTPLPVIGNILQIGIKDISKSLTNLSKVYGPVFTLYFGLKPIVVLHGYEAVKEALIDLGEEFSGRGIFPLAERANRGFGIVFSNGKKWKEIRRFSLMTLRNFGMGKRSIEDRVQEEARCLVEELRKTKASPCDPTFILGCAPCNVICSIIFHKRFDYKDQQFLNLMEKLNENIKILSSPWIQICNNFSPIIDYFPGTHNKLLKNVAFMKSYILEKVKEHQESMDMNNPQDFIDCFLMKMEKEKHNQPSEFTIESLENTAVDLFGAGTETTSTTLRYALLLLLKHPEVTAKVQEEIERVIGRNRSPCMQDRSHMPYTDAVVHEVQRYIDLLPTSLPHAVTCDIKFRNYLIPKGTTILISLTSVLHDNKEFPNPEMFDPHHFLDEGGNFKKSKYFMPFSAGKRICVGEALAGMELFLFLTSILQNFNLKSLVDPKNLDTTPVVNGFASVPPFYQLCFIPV

CYP2CD6 = CYP2CD6 (Homo sapiens, UniProt P10635); details: read-out: IC50 CYP2CD6; human liver microsomes
Sequence of CYP2CD6 (P10635 whole entry, the tested form may be a part): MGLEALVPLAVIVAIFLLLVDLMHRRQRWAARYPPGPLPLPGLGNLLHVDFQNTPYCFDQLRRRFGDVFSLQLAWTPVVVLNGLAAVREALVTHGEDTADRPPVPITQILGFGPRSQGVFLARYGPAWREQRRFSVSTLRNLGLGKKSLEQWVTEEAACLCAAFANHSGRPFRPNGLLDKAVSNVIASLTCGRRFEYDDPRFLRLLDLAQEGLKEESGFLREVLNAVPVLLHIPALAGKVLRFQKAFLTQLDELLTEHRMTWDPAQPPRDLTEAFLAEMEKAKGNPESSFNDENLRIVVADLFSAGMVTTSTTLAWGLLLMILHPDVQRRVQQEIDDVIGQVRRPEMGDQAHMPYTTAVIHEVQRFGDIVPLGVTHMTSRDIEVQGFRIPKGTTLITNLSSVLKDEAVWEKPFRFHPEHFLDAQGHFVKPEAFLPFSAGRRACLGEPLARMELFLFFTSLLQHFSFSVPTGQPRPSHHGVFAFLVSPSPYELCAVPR

RT112 and RT4 = test: Cell viability (SRB) of FGFR3-TACC3 fusion expressing cell lines; type: cell-based, human; details: both models RT112 and RT4, 3 days
Procedure: KHS101 (Sigma Aldrich) and SPL-B (Axon MedChem, VA, USA) were dissolved in 100% DMSO to yield a stock concentration of 50 mM. Newly synthesized molecules were dissolved in 100% DMSO to yield a stock concentration of 10 mM. […] Cell viability was measured 72 hours after treatment with Sulforhodamine B (SRB, Sigma Aldrich) assay as recommended by the manufacturer.

[8] = 2 mg/kg (po. or i.v) or 5 mg/kg (po.) every two days for 30 days
[9] = 5 mg/kg oral every other day for 30 days

Compound: COc1ccc(-c2cc(Nc3ccnc(N4CCOCC4)n3)on2)cc1 [Compound 5]
- share of NCI-60 cell lines with less than 1 μM GI50 value (NCI-60 human cell lines): ~90%
- GI50 (NCI-60 human cell lines; Homo sapiens, read-out: 50% growth inhibition (GI50) value, almost all cell lines): < 1000 nM
- fraction of apoptotic cells (Annexin V/PI) (JIMT-1 cells [1]): 45.6%
- average colony number compared with other two inhibitors at the same doses (JIMT-1 cells [2]): significantly lower
- body weight of mice (JIMT-1 xenografts; [8]): did not have any negative effect on the body weight
- tumor growth rate compared with control group (JIMT-1 xenografts; [8]): decreased
- body weight of mice (JIMT-1 xenografts; [9]): no major effect on the body weight
- tumor growth as compared to SPL-B (JIMT-1 xenografts; [9]): significant reduction of tumor growth
- mice weight (JIMT-1 xenografts; 25 mg/kg, po., 23 days): did not affect the mice weight
- tumor growth compared to vehicle-treated mice (JIMT-1 xenografts; 25 mg/kg, po., 23 days): very significant reduction of tumor growth
- tumor weights compared to vehicle group (JIMT-1 xenografts; 25 mg/kg, po., 23 days): significantly lower
- growth inhibition of cells at high doses (MCF-12A): did not reach to 50% growth inhibition
- pIC50 (JIMT-1 cells [3]; JIMT-1 cells, read-out: IC50): 6.92
- pIC50 (JIMT-1 cells [3]; cultured cells, in-house screening on JIMT-1, read-out: IC50, suppresses cell growth): 6.72
- stabilization of TACC3 protein in the presence of pronase (TACC3): TACC3 protein was stabilized
- stability in mouse liver microsomes [4]: low stability
- stability in human liver microsomes [5]: low stability
- induction of mitotic arrest, DNA damage and apoptosis markers (JIMT-1 cells [6]): dose-dependent manner
- logD [7]: 2.3
- pIC50 (CYP2C9): 5.58
- pIC50 (CYP2CD6): 4.73
- IC50 value compared to SPL-B and KHS101 (RT112 and RT4): lowest IC50 value
